According to patent US20160313301A1, “METHOD FOR PREDICTING ANTITUMOR EFFICACY OF HSP90 INHIBITOR IN CANCER TREATMENT” (NIPPON KAYAKU KABUSHIKI KAISHA, priority 2013, published 2016):

Experiments:
Assay type in all cases: in vivo
[1] = test system: human ovarian cancer cells OC-11-JCK/PTX; experiment: Anti-tumor test in mice transplanted subcutaneously with tumor (OC-11-JCK/PTX); conditions: OC-11-JCK/PTX s.c. in mice; 125 mg/kg tail vein three times at 7 day intervals
Experimental: Human ovarian cancer cell lines OC-10-JCK, OC-11-JCK, and TOGY-18, and a human breast cancer cell line MC-19-JCK were obtained from Central Institute for Experimental Animals. Cryopreserved tumor pieces were thawed, and then OC-10-JCK, OC-11-JCK, and MC-19-JCK were transplanted subcutaneously to SCID mice, while TOGY-18 was transplanted subcutaneously to nude mice. After the tumors were grown, the tumors were removed and cut into tumor pieces. The tumor pieces were transplanted subcutaneously to SCID mice or nude mice with trocars. The tumors were maintained by repeated transplantation in the same manner as described above to prepare tumors to be transplanted. Human ovarian cancer cell lines ES-2, SK-OV-3, OV-90, and TOV-21G, and a human lung cancer cell line NCI-H1975 were obtained from American Type Culture Collection (ATCC). The SK-OV-3 and NCI-H1975 cell lines were grown in recommended culture media, of which about 1×10^7 cells were suspended into HBSS and then injected subcutaneously to SCID mice. After the cells formed tumors, the tumors were removed and cut into tumor pieces. The tumor pieces were transplanted subcutaneously to SCID mice with trocars. The tumors were maintained by repeated transplantation in the same manner as described above to prepare tumors to be transplanted. The OV-90 cell line was grown in a recommended culture medium, of which about 1×10^6 cells were suspended into HBSS and then injected subcutaneously to SCID mice. After the cells formed a tumor, the tumor was subjected to an anti-tumor test. The TOV-21G cell line was grown in a recommended culture medium, of which about 1×10^7 cells were suspended into HBSS and then injected subcutaneously to SCID mice. After the cells formed a tumor, the tumor was subjected to the anti-tumor test. The ES-2 cell line was grown in a recommended culture medium, suspended into HBSS, and then injected subcutaneously to nude mice. After the cells formed a tumor, the tumor was removed and cut into tumor pieces. The tumor pieces were transplanted subcutaneously to nude mice with a trocar. […]

[2] = test system: human breast cancer cells JIMT-1; experiment: Anti-tumor test in mice transplanted subcutaneously with tumor (JIMT-1); conditions: JIMT-1 s.c. in mice; 125 mg/kg tail vein three times at 7 day intervals
Experimental: (§1) Human ovarian cancer cell lines OC-10-JCK, OC-11-JCK, and TOGY-18, and a human breast cancer cell line MC-19-JCK were obtained from Central Institute for Experimental Animals. Cryopreserved tumor pieces were thawed, and then OC-10-JCK, OC-11-JCK, and MC-19-JCK were transplanted subcutaneously to SCID mice, while TOGY-18 was transplanted subcutaneously to nude mice. After the tumors were grown, the tumors were removed and cut into tumor pieces. The tumor pieces were transplanted subcutaneously to SCID mice or nude mice with trocars. The tumors were maintained by repeated transplantation in the same manner as described above to prepare tumors to be transplanted. Human ovarian cancer cell lines ES-2, SK-OV-3, OV-90, and TOV-21G, and a human lung cancer cell line NCI-H1975 were obtained from American Type Culture Collection (ATCC). The SK-OV-3 and NCI-H1975 cell lines were grown in recommended culture media, of which about 1×10^7 cells were suspended into HBSS and then injected subcutaneously to SCID mice. After the cells formed tumors, the tumors were removed and cut into tumor pieces. The tumor pieces were transplanted subcutaneously to SCID mice with trocars. The tumors were maintained by repeated transplantation in the same manner as described above to prepare tumors to be transplanted. […]

[3] = test system: human breast cancer cells MC-19-JCK; experiment: Anti-tumor test in mice transplanted subcutaneously with tumor (MC-19-JCK); conditions: MC-19-JCK s.c. in mice; administered once at 125 mg/kg
Experimental: as §1

[4] = test system: human ovarian cancer cells TOGY-18; experiment: Anti-tumor test in mice transplanted subcutaneously with tumor (TOGY-18); conditions: TOGY-18 s.c. in mice; 125 mg/kg tail vein three times at 7 day intervals
Experimental: as §1

[5] = test system: human lung cancer cells NCI-H1975; experiment: Anti-tumor test in mice transplanted subcutaneously with tumor (NCI-H1975); conditions: NCI-H1975 s.c. in mice; 150 mg/kg tail vein three times at 7 day intervals
Experimental: as §1

## CC(C)c1cc(-c2n[nH]c(=O)n2-c2ccc3c(ccn3C)c2)c(O)cc1O [Ganetespib, reference compound]
[1]
  T/C % (lowest value from the beginning to the 21st day of administration): 84.0%
[2]
  T/C % (lowest value from the beginning to the 21st day of administration): 56.6%
[3]
  T/C % (lowest value from the beginning to the 21st day of administration): 19.8%
[4]
  T/C % (lowest value from the beginning to the 21st day of administration): 67.7%
[5]
  T/C % (lowest value from the beginning to the 21st day of administration): 44.0%
